{"source": "patent EP0214303A1", "about": "“DISULFIDE COMPOUNDS AND ANTINEOPLASTIC AGENTS” (priority 1985, dated 1986)", "key": {"[1]": {"system": "peripheral leukocytes", "assay": "Effect on the peripheral leucocytes number (WBC4000)", "type": "in vivo, ddY mice", "settings": "statement in words on Table 2 (image); comparison with control compounds A, B, C, D where stated; intraperitoneal, 4 days after administration", "experimental": "(4) Effect on the peripheral leucocytes number: • Sarcoma 180 solid tumor cells […] were subcutaneously implanted into the right axilla of each mouse (body weight 20 ±2 g) of a group consisting of 5 male mice (ddY strain). 24 hours after implantation, a test compound was intraperitoneally administered to each animal. 4 days after the administration, blood (each 0.02 ml) was collected from the suborbital plexus vein of each tumor-carrying animal. The collected sample of blood was dispersed in 9.98 ml of Cell-Kit Seven solution. One drop of saponin solution was added to the sample to dissolve erythrocytes and then a microcell counter was used to count the number of leucocytes. On graph paper, the number of leucocytes was indicated by an arithmetic scale on the longitudinal axis and the dose of the test compound was indicated by a logarithmic scale on the lateral axis. The relationship between the number of peripheral leucocytes and the dose of the test compound was plotted and the dose (i.e., WBC4000) corresponding to 4000 peripheral leucocytes/mm3 (about half the number of leucocytes of normal mice) was obtained."}, "[2]": {"settings": "pH 7"}}, "data": [{"smiles": "COC12C(COC(N)=O)C3=C(C(=O)C(C)=C(NCCCSSCCCNC4=C(C)C(=O)C5=C(C4=O)C(COC(N)=O)C4(OC)C6NC6CN54)C3=O)N1CC1NC12", "note": "(stereo not drawn) [Compound 1, 7-N,7'-N'-(dithioditrimethylene) dimitomycin C]", "values": [{"measurement": "WBC4000 (dosage reducing the peripheral leukocytes to 4000/mm3)", "setting": "[1]", "value": "considerably increased"}]}, {"smiles": "COC12C(COC(N)=O)C3=C(C(=O)C(C)=C(NCCCCSSCCCCNC4=C(C)C(=O)C5=C(C4=O)C(COC(N)=O)C4(OC)C6NC6CN54)C3=O)N1CC1NC12", "note": "(stereo not drawn) [Compound 4, 7-N,7'-N'-(dithioditetramethylene) dimitomycin C]", "values": [{"measurement": "WBC4000 (dosage reducing the peripheral leukocytes to 4000/mm3)", "setting": "[1]", "value": "considerably increased"}]}, {"smiles": "COC12C(COC(N)=O)C3=C(C(=O)C(C)=C(NCCCCCCSSCCCCCCNC4=C(C)C(=O)C5=C(C4=O)C(COC(N)=O)C4(OC)C6NC6CN54)C3=O)N1CC1NC12", "note": "(stereo not drawn) [Compound 8, 7-N,7'-N'-(dithiodihexamethylene) dimitomycin C]", "values": [{"measurement": "WBC4000 (dosage reducing the peripheral leukocytes to 4000/mm3)", "setting": "[1]", "value": "considerably increased"}]}, {"smiles": "COC12C(COC(N)=O)C3=C(C(=O)C(C)=C(NCCCCCCCCSSCCCCCCCCNC4=C(C)C(=O)C5=C(C4=O)C(COC(N)=O)C4(OC)C6NC6CN54)C3=O)N1CC1NC12", "note": "(stereo not drawn) [Compound 10, 7-N,7'-N'-(dithiodioctamethylene) dimitomycin C]", "values": [{"measurement": "solubility (result in words)", "setting": "[2]", "value": "scarcely soluble in water"}]}, {"smiles": "COC12C(COC(N)=O)C3=C(C(=O)C(C)=C(NCCCCSSCC(O)CO)C3=O)N1CC1NC12", "note": "(stereo not drawn) [Compound 26, 7-N-[4-(2,3-dihydroxypropyldithio)butyl] mitomycin C]", "values": [{"measurement": "WBC4000 (dosage reducing the peripheral leukocytes to 4000/mm3)", "setting": "[1]", "value": "considerably increased"}]}, {"smiles": "CO[C@@]12[C@H](COC(N)=O)C3=C(C(=O)C(C)=C(NCCCCSSC[C@H](N)C(=O)NCC(=O)O)C3=O)N1C[C@@H]1N[C@@H]12", "note": "[Compound 27]", "values": [{"measurement": "solubility", "value": "> 39", "unit": "mg/mL"}]}]}
